We go through 1 molecule from article PMC9229843, “Cancer-Related Somatic Mutations in Transmembrane Helices Alter Adenosine A1 Receptor Pharmacology” (Molecules, 2022).

One assay addresses T1, hA1AR G279S^7.44 (Homo sapiens, UniProt P30542, G279S).
T1 sequence (P30542 1-326 G279S): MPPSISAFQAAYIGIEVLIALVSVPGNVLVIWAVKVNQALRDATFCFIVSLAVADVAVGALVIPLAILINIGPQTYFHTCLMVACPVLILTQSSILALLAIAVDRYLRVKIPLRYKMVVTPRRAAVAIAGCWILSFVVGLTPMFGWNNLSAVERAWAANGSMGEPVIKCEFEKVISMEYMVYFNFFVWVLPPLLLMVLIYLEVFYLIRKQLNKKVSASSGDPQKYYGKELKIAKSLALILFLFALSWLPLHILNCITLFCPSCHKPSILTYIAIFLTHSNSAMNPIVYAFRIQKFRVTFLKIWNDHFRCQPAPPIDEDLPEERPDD
The conditions noted are these: [35S]GTPγS; ratio over basal activity of wild type hA1AR. As to the method: (§1) Transient transfection of CHO cells with wild type or mutated hA1AR plasmid constructs was performed using a polyethylenimine (PEI) method. Cells were seeded in 10-cm culture dishes to achieve 50–60% confluency 24 h prior to transfection. On the day of transfection, cells were transfected with a PEI: DNA ratio of 3:1 and a plasmid DNA amount of 10 μg/dish. Moreover, 24 h post-transfection, the medium was refreshed, and 48 h after transfection, cells were collected and membranes were prepared as previously described. Membranes were aliquoted in 250 or 100 μL and stored at −80 °C. Membrane protein concentrations were determined using the BCA method.
(§2) [^35S]GTPγS binding assays were adapted from a previously published method. […] Then, 20 µL of [^35S]GTPγS (final concentration of 0.3 nM) was added to each well, followed by 90 min of incubation at 25 °C. Incubations were terminated and filter-bound radioactivity was measured as described above.
(§3) All experimental data were analyzed by GraphPad Prism 7.0 or 8.0 (GraphPad Software Inc., San Diego, CA, USA). Data from yeast liquid growth and [^35S]GTPγS binding assays were analyzed by non-linear regression using “log (agonist) vs. response (three parameters)” or “log (inhibitor) vs. response (three parameters)” to obtain potency (EC50), inhibitory potency (IC50), and efficacy (Emax or Imax) values. The radioligand displacement curves were obtained from a statistically preferred one-site or two-site binding model. pKi values were calculated from pIC50 values using the Cheng–Prusoff equation, where KD values were obtained from the homologous competition assays from this study and calculated by non-linear regression using “one site–homologous” [62].
On the technique in general: Binding of GTPγS marks nucleotide exchange on a G protein.

Assay [1] has as its target T2, hA1AR H78L^3.23 (Homo sapiens, UniProt P30542, H78L).
T2 sequence (P30542 1-326 H78L): T1 sequence (P30542 1-326 G279S) with H78L, S279G
The conditions noted are these: [35S]GTPγS; ratio over basal activity of wild type hA1AR. On the procedure:
as §1, §2, §3

In assay [2] the target is T3, hA1AR L134F^4.52 (Homo sapiens, UniProt P30542, L134F).
T3 sequence (P30542 1-326 L134F): T1 sequence (P30542 1-326 G279S) with L134F, S279G
The conditions noted are these: [35S]GTPγS; ratio over basal activity of wild type hA1AR. As to the method:
as §1, §2, §3

In assay [3] the target is T2, hA1AR H78L^3.23. Put plainly: [3H]DPCPX radioligand displacement assay, CHO membranes. Conditions: fraction of high-affinity state; two-site model. Also on record: expressed in transfected cells; host or cells: CHO cells, transient; membranes. Type of assay: binding. On the procedure: as §1
(§4) The displacement assays were performed as described previously. […] Note, the number of cell membranes (10–25 µg) was adjusted to obtain (approximately) a 1500 DPM assay window for each mutant. […] Incubations were terminated after 1 h at 25 °C by rapid vacuum filtration through GF/B filter plates (PerkinElmer, Groningen, Netherlands) using a Perkin Elmer Filtermate-harvester. Afterward, filter plates were washed ten times with ice-cold buffer (50 mM Tris-HCl, pH 7.4) and dried at 55 °C for 30 min. After the addition of 25 µL per well of the Microscint scintillation cocktail (PerkinElmer, Groningen, The Netherlands), the filter-bound radioactivity was measured by scintillation spectrometry in a Microbeta2® 2450 microplate counter (PerkinElmer).
as §3

Assay [4] addresses T3, hA1AR L134F^4.52. Described as above. Type of assay: binding. Further details: expressed in transfected cells; host or cells: CHO cells, transient; membranes. Conditions: fraction of high-affinity state; two-site model. On the procedure: as §1, §4, §3
A further assay has as its target T4, hA1AR S246T^6.47 (Homo sapiens, UniProt P30542, S246T).
T4 sequence (P30542 1-326 S246T): T1 sequence (P30542 1-326 G279S) with S246T, S279G
Described as above. Type of assay: binding. Further details: expressed in transfected cells; host or cells: CHO cells, transient; membranes. The conditions noted are these: fraction of high-affinity state; two-site model. On the procedure:
as §1, §4, §3

Changes are numbered by the printed parent chain.

With `OC[C@H]1O[C@@H](n2cnc3c(NC4CCCC4)ncnc32)[C@H](O)[C@@H]1O` [CPA, N^6-cyclopentyladenosine], the figures for the Emax at hA1AR G279S^7.44, on hA1AR H78L^3.23 [1] and at hA1AR L134F^4.52 [2] were 1.57 ± 0.20, 1.40 ± 0.10 and 1.48 ± 0.24, respectively. For the same molecule, the “Fraction (High)” value at hA1AR H78L^3.23 [3] came to 0.33 ± 0.04; on hA1AR L134F^4.52 [4] it was 0.34 ± 0.03; on hA1AR S246T^6.47 it was 0.26 ± 0.03.
